Like-named read-outs stand apart in the source and are kept apart here.
Key:
[1] = assay type: in vivo, male Sprague-Dawley rats; settings: cholesterol diet, .2% in food
Method: (§1) General feeding experiments were conducted on rats to determine the effect of the amides of this invention on serum and liver lipids of animals fed a basal diet and a basal diet supplemented with cholesterol. In addition, the effect of these drugs on serum lipoproteins was studied as well as their effect on body weight, gross feed efficiency, liver weight, appetite and energy utilization with respect to their metabolic size. Male, Sprague-Dawley rats weighing 150-175 g. were housed in cages with raised wire floors in a room kept at a temperature of 24°-26° C. with a 12-hour day and 12-hour night cycle, fed ad libitum a semipurified diet consisting by weight % composition: vitamin-free casein, 20; glucose, 63; hydrogenated coconut oil, 10; GBI Vitamin Fortification Mixture, Cat. #40060 obtained from General Biochemical Company of Chargrin Falls, Ohio, 1; modified salt mix of Williams and Briggs, Cat. #170911 obtained from General Biochemical Company, 4; and cellulose, 2; and watered. The modified salt mix provided the following amounts in grams of elements per Kg. of diet:
(§2) Diets were supplemented with 0.5% cholic acid, 1% cholesterol, and drug at the expense of glucose. The experimental period was 18-21 days with body weight and food measured at specified intervals. Animals were fasted overnight and terminally bled by cardiac puncture. Blood was anti-coagulated with ethylenediamine tetracetic acid and plasma was separated by centrifugation, and stored at -20° C. Livers were excised, weighed, and stored at -20° C. All samples remained at this temperature until they were analyzed for total lipids, total cholesterol, triglycerides and phospholipids. Gross feed efficiency together with the effect of metabolic size on food intake and the effect of drug on energy utilization were determined.
(§3) Results of testing the mixed amides of Example 5 an reference compounds in rats on a basal diet with added cholesterol according to the foregoing procedure for dietary induced hyperlipemia are in Tables 4 and 5.

[2] = tested on: Serum and Liver Lipids; assay: Dietary-induced hyperlipemia test, basal diet with cholesterol: serum and liver lipids (Table 5); assay type: in vivo, male Sprague-Dawley rats; settings: .2% in food, ± S.D.
Method: as §1, §2, §3

[3] = tested on: Serum Triglycerides and Cholesterol; assay: Triton-induced hyperlipidemia test (Table 1); assay type: in vivo, male Sprague-Dawley rats; settings: 140 mg/kg p.o.; for % Change Cholesterol / % Change Triglycerides: vs control; for Serum Cholesterol / Serum Triglycerides: ± SD
Method: Fasted, male Sprague-Dawley rats weighing 250-350 g were fed ad libitum a commercial lab chow with free access to water. The animals were fasted overnight and administered Triton-WR-1339 (produced by Ruger Chemical Company, Inc., Irvington, New Jersey) as described by Schurr et al.; Lipids 7 68(1972) except the procedure was modified to use the saphenous vein and divided doses of 70 mg/kg. The rats were anesthetized with sodium pentobarbital and terminally bled by heart puncture. Serum was stored at -20° C. until it was analyzed for total cholesterol and triglycerides. Comparison was also made with clofibrate.

[4] = tested on: Serum Lipoproteins; assay: Serum lipoproteins of rats fed semi-purified diet supplemented with cholesterol (Table 7); assay type: in vivo; settings: .2% in food
Method: as §1, §2
^a VLDL, very low density lipoproteins; LDL, low density lipoproteins
and HDL, high density lipoproteins as determined on a Beckman-Gilford

[5] = tested on: β-Sterol Synthesis, Liver; assay: β-Sterol synthesis, acetate-1-14C incorporation, liver (Table 8); assay type: in vivo, male Sprague-Dawley rats; settings: Liver; 140 mg/kg p.o.; ± S.D.
Method: (§4) The effect of the mixed amides of Example 5 and reference compounds on β Sterol synthesis was determined by a modified procedure of Hill and Dvornik Arch. Biochem. Biophys. 114 (1966), 88. Male Sprague-Dawley rates weighing 127-175 g. were freely provided a basal semi-purified diet and water. The rats were housed in cages with raised wire floors in a room kept at a temperature of 24°-26° C. with a 12-hour day-12-hour night cycle. The cycle was reversed so the night cycle corresponded to the working day to take advantage of the circadian rhythm that favors cholesterol synthesis. The test period was five days and 20 μCi sodium acetate-1-^14 C (Sp. act. 56 mCi/m mole) administered intraperitoneally. Animals were sacrificed under carbon dioxide and the distal 10 cm of the ileum as well as the median and left liver lobes excised and homogenized. Subsequently, the β Sterols were isolated as the digitonide and the radioactivity determined in a Packard Tricarb Liquid Scintillation Spectrometer Model 3385 using 0.5% 2,5 diphenyloxazole and 8% naphthalene in a solvent mixture of 40% toluene, 40% dioxane and 20% absolute ethanol. Data for the effect of the mixed amides of Example 5 on the synthesis of nonsaponifiable substances and β Sterols as determined by the Digitonide method are shown in Table 8. […] A prior art compound, α-methylbenzyllinoleamide at 140 mg/kg, p.o. had no effect on cholesterol synthesis in either tissue.

[6] = tested on: β-Sterol Synthesis, Ileum; assay: β-Sterol synthesis, acetate-1-14C incorporation, ileum (Table 8); assay type: in vivo, male Sprague-Dawley rats; settings: Ileum; 140 mg/kg p.o.; ± S.D.
Method: as §4

[7] = tested on: Serum and Liver Lipids; assay: Dietary-induced hyperlipemia test, basal semi-purified diet: serum and liver lipids (Table 3); assay type: in vivo, male Sprague-Dawley rats; settings: .2% in food, ± S.D.
Method: as §1, §2
(§5) Results of testing the mixed amides of Example 5 and reference compounds in rats on a basal diet according to the foregoing procedure for dietary induced hyperlipemia are in Tables 2 and 3.

[8] = Dietary-induced hyperlipemia test, basal semi-purified diet: liver weight, body weight, food consumption (Table 2); assay type: in vivo, male Sprague-Dawley rats; settings: .2% in food
Method: as §1, §2, §5

With `CCOC(=O)C(C)(C)Oc1ccc(Cl)cc1` [Clofibrate, ethyl p-chlorophenoxyisobutyrate] the “Food Consumed” value [1] was 340 g, the “Gross Feed Efficiency” value ([1]; gross weight gain/total food consumed in grams) was “.215” and the “Body wt, Final” value ([1]; ± S.D.) was 208 ± 16 g. The “Liver wt per 100 g body wt.” value ([1]; ± S.D.) was 4.9 ± 1.2 g, the “Liver wt, Total” value ([1]; ± S.D.) was 10.4 ± 2.6 g and the “Liver Triglycerides” value [2] was 7.83 ± 2.22 mg/g. For the same compound, the “Serum Cholesterol” value ([2]; p<.05 for Ex. 5) was 235.00 ± 68.27 mg/100 ml, the “Liver Cholesterol” value ([2]; p<.05 for all) was 14.17 ± 9.10 mg/g and the “Liver Lipids, Total” value ([2]; p<.05 for all) was 93.83 ± 12.06 mg/g. For the same compound, the “Serum Lipids, Total” value ([2]; p<.05 for all) was 430.33 ± 119.37 mg/100 ml, the “Serum Triglycerides” value ([2]; p<.05 for clofibrate) was 126.50 ± 47.21 mg/100 ml and the “% Change Cholesterol” value ([3]; Test Group I) was -24.0%. The “% Change Triglycerides” value ([3]; Test Group I) was -79%, the “Serum Cholesterol” value ([3]; Test Group I) was 173.0 ± 54.0 mg/100 ml and the “Serum Triglycerides” value ([3]; Test Group I) was 124.5 ± 7.8 mg/100 ml. For the same compound, the “% Change Cholesterol” value ([3]; Test Group II) was -24%, the “Serum Cholesterol” value ([3]; Test Group II) was 94.1 ± 13.6 mg/100 ml and the “% Change Triglycerides” value ([3]; Test Group III) was -20%. For the same compound, the “Serum Cholesterol” value ([3]; Test Group III) was 109.3 ± 24.4 mg/100 ml, the “Serum Triglycerides” value ([3]; Test Group III) was 132.7 ± 64.5 mg/100 ml and the “% Change Cholesterol” value ([3]; Test Group IV) was -24%. For the same compound, the “% Change Triglycerides” value ([3]; Test Group IV) was -34%, the “Serum Cholesterol” value ([3]; Test Group IV) was 213.0 ± 14.1 mg/100 ml and the “Serum Triglycerides” value ([3]; Test Group IV) was 411.7 ± 118.0 mg/100 ml. For the same compound, the “Albumin, Percentage Composition” value [4] was 22.63%, the “HDL, Percentage Composition” value [4] was 9.03% and the “LDL, Percentage Composition” value [4] was 42.56%. For the same compound, the “VLDL, Percentage Composition” value [4] was 25.76%, the “Acetate-1-14C incorporated, Digitonide” value [5] was 1.588 ± 1.216 n moles/g tissue and the “Acetate-1-14C incorporated, Non-saponifiable” value [5] was 2.943 ± 1.707 n moles/g tissue. For the same compound, the “Acetate-1-14C incorporated, Digitonide” value [6] was 6.098 ± .909 n moles/g tissue, the “Acetate-1-14C incorporated, Non-saponifiable” value [6] was 6.774 ± 1.447 n moles/g tissue and the “Liver Cholesterol” value [7] was 2.63 ± .09 mg/g. The “Liver Lipids, Total” value [7] was 51.21 ± 7.89 mg/g, the “Liver Triglycerides” value [7] was 1.78 ± .43 mg/g and the “Serum Cholesterol” value [7] was 89.83 ± 8.77 mg/100 ml. The “Serum Lipids, Total” value [7] was 143.70 ± 22.42 mg/100 ml, the “Serum Triglycerides” value [7] was 31.83 ± 7.08 mg/100 ml and the “Food Consumed” value [8] was 306 g. The “Gross Feed Efficiency” value ([8]; gross weight gain in grams/total food consumed in grams) was “.180”, the “Body wt, Final” value ([8]; ± S.D.) was 210 ± 21 g and the “Liver wt per 100 g body wt.” value ([8]; ± S.D.) was 4.4 ± .4 g. The “Liver wt, Total” value ([8]; ± S.D.) was 9.2 ± .4 g.

For `CCCCCCCCCCCCCCCCCC(=O)NC(C)Cc1cccc(C(F)(F)F)c1` (stereo not drawn) [Ex.4, N-[1-methyl-2-(3-trifluoromethylphenyl)ethyl]octadecanamide], the “% Change Cholesterol” value ([3]; Test Group IV) was -24%, the “% Change Triglycerides” value ([3]; Test Group IV) was -74% and the “Serum Cholesterol” value ([3]; Test Group IV) was 214.3 ± 91.6 mg/100 ml. The “Serum Triglycerides” value ([3]; Test Group IV) was 160.0 ± 110.0 mg/100 ml.

With `CCCCCCCC/C=C\CCCCCCCC(=O)NC(C)Cc1cccc(C(F)(F)F)c1` (stereo not drawn) [Ex.2, N-[1-methyl-2-(3-trifluoromethylphenyl)ethyl]octadec-9-enamide cis isomer] the “% Change Cholesterol” value ([3]; Test Group IV) was -39%, the “% Change Triglycerides” value ([3]; Test Group IV) was -73% and the “Serum Cholesterol” value ([3]; Test Group IV) was 173.3 ± 10.2 mg/100 ml. For the same compound, the “Serum Triglycerides” value ([3]; Test Group IV) was 166.3 ± 37.2 mg/100 ml.

— patent US4115587A, “Fatty acid amides of norfenfluramine and compositions and methods thereof” (A. H. Robins Company, Inc., priority 1976, dated 1978)
